Assays:
[1] = molecular target: T1, BRD9 (Homo sapiens, UniProt Q9H8M2); test: BRD9 degradation, HiBiT-BRD9 KI HEK293 (LgBiT) cells, NanoGlo Lytic Endpoint assay (Assay Protocol 1); type: cell-based; conditions: BRD9 degradation; for Dmax / Dmax at 1 µM: HEK293; for Dmax: read-out: Dmax^1; for Dmax at 1 µM: 1 μM compound at 6 h of treatment, read-out: Assay 1 Dmax
T1 sequence (Q9H8M2 1-597): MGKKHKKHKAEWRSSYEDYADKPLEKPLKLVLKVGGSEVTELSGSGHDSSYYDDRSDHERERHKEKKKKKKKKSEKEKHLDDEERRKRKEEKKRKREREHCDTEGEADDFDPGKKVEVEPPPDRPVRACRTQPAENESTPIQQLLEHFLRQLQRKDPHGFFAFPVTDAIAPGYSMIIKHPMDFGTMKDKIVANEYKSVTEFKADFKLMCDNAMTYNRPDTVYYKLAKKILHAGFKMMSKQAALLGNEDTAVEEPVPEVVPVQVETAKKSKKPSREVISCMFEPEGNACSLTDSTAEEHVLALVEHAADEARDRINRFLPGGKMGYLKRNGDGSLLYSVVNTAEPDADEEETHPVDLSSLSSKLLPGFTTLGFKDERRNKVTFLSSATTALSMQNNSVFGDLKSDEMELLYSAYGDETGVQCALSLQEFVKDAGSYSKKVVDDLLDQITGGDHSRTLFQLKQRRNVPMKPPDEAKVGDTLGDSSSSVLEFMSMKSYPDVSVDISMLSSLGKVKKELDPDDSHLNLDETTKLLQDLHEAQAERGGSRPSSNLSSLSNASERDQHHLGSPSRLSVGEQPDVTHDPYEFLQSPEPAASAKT
Experimental: HiBiT-BRD9 KI HEK293 (LgBiT) Cells (Promega CS3023412) were seeded at 8000 cells per well (38 μL) in sterile white bottom 384 well plates (Invitrogen 164610 or Greiner 781080) and incubated overnight at 37° C. with 5% CO2. The next day, compounds were prepared at 1000× final concentration in DMSO and diluted 1:100 in media (DMEM PAN Biotech P04-03550+10% FBS ATCC 302025). 4 μL compound was added to each well of the cell plate and incubated for 6 h at 37° C. with 5% CO2 BRD9 expression was quantified using the NanoGlo Lytic Endpoint assay (Promega N3050). The lytic buffer was equilibrated to room temperature for 10-15 min before lytic reagent was prepared by adding substrate (1:50) and LgBit protein (1:100) in lytic buffer. 40 μL lytic reagent mix was added to each well of the cel plate and plates were centrifuged briefly at ˜50g. Plates were incubated with shaking (350 RPM) for 12-24 min before reading using the LUM plus module of a BMG Pherastar FSX. Data was analysed using Dotmatics software and % BRD9 remaining was calculated by normalisation to average data from high and low control wells (DMSO treated cels and no cells respectively).

[2] = molecular target: T1, BRD9; test: Degradation of BRD9 (IF), immunofluorescence in MV4-11 cells, 24 hours (Assay Protocol 2); type: cell-based; design: A suspension of MV4-11 cells (ATCC CRL-9591) was prepared; host or cells: MV4-11
Outline: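 MV4-11 cells treated with compound 24 h at 37° C., then fixed, permeabilised and immunostained for BRD9 (anti-BRD9 E4Q3F, Alexa 647 secondary, Hoechst counterstain). High-content imaging quantified nuclear BRD9 signal; % BRD9 remaining normalised to DMSO and 100 nM CFT-8634 controls.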

[3] = Table 4, determined according to Assay Protocol 1, read-out: DC50^1
[4] = MV4-11, Table 4, BRD9 degradation, determined according to Assay Protocol 2, read-out: Dmax^2
[5] = Table 4, BRD9 degradation, determined according to Assay Protocol 2, read-out: DC50^2
[6] = Table 4, determined according to Assay Protocol 1
[7] = Table 2, Assay Protocol 1, 6 h of treatment, read-out: Assay 1 DC50
[8] = MV4-11, 24 h, Table 2, BRD9 degradation (IF), Assay Protocol 2, MV4-11 cells, read-out: Assay 2 DCmax
[9] = Table 2, BRD9 degradation (IF), Assay Protocol 2, MV4-11 cells, read-out: Assay 2 DC50

Compound | DC50 [1, 3] | Dmax [2, 4] | DC50 [2, 5] | Dmax [1, 6] | Dmax at 1 µM ([1]; Table 2, Assay Protocol 1) | DC50 [1, 7] | Dmax [2, 8] | DC50 [2, 9]
COc1cc(-c2cn(C)c(=O)c(C)c2C)cc(OC)c1CN1CC2CC1CN2C(=O)/C(C#N)=C/c1cccc(Br)n1 (mixture of isomers) [BRD9j, (E/Z)-3-(6-bromopyridin-2-yl)-2-(5-(2,6-dimethoxy-4-(1,4,5-trimethyl-6-oxo-1,6-dihydropyridin-3-yl)benzyl)-2,5-diazabicyclo[2.2.1]heptane-2-carbonyl)acrylonitrile] | < 0.025 µM | > 70% | < 0.025 µM |  |  |  |  | 
COc1cccc(/C=C(\C#N)C(=O)N2CC3CC2CN3Cc2c(OC)cc(-c3cn(C)c(=O)c(C)c3C)cc2OC)n1 (mixture of isomers) [BRD9k, (E/Z)-2-(5-(2,6-dimethoxy-4-(1,4,5-trimethyl-6-oxo-1,6-dihydropyridin-3-yl)benzyl)-2,5-diazabicyclo[2.2.1]heptane-2-carbonyl)-3-(6-methoxypyridin-2-yl)acrylonitrile] | < 0.025 µM | 50 to 70% | < 0.025 µM |  |  |  |  | 
COc1cc(-c2cn(C)c(=O)c(C)c2C)cc(OC)c1CN1CC2CC(C1)N2C(=O)/C(C#N)=C/c1cccc(Br)n1 (mixture of isomers) [BRD9m, (E/Z)-3-(6-bromopyridin-2-yl)-2-(3-(2,6-dimethoxy-4-(1,4,5-trimethyl-6-oxo-1,6-dihydropyridin-3-yl)benzyl)-3,6-diazabicyclo[3.1.1]heptane-6-carbonyl)acrylonitrile] | < 0.025 µM |  | > 0.2 µM | > 70% |  |  |  | 
COc1cc(-c2cn(C)c(=O)c(C)c2C)cc(OC)c1CN1C2CC1CN(C(=O)/C(C#N)=C/c1nccs1)C2 (mixture of isomers) [BRD9n, (E/Z)-2-(6-(2,6-dimethoxy-4-(1,4,5-trimethyl-6-oxo-1,6-dihydropyridin-3-yl)benzyl)-3,6-diazabicyclo[3.1.1]heptane-3-carbonyl)-3-(thiazol-2-yl)acrylonitrile] |  |  | 0.025 to 0.2 µM | 50 to 70% |  |  |  | 
COc1cc(-c2cn(C)c(=O)c(C)c2C)cc(OC)c1CN1C2CC1CN(C(=O)/C(C#N)=C/C1(C(F)(F)F)CCC1)C2 (mixture of isomers) [BRD9p, (E/Z)-2-(6-(2,6-dimethoxy-4-(1,4,5-trimethyl-6-oxo-1,6-dihydropyridin-3-yl)benzyl)-3,6-diazabicyclo[3.1.1]heptane-3-carbonyl)-3-(1-(trifluoromethyl)cyclobutyl)acrylonitrile] |  | > 70% |  | > 70% |  |  |  | 
COc1cc(-c2cn(C)c(=O)c(C)c2C)cc(OC)c1CN1CC2CCC(C1)N2C(=O)/C(C#N)=C/c1nccs1 (mixture of isomers) [BRD9q, (E/Z)-2-(3-(2,6-dimethoxy-4-(1,4,5-trimethyl-6-oxo-1,6-dihydropyridin-3-yl)benzyl)-3,8-diazabicyclo[3.2.1]octane-8-carbonyl)-3-(thiazol-2-yl)acrylonitrile] |  |  | < 0.025 µM | 50 to 70% |  |  |  | 
COc1cc(-c2cn(C)c(=O)c(C)c2C)cc(OC)c1C(=O)N1CC2CC1CN2C(=O)/C(C#N)=C/C(C)(C)C (mixture of isomers) [BRD9t, (E/Z)-2-(5-(2,6-dimethoxy-4-(1,4,5-trimethyl-6-oxo-1,6-dihydropyridin-3-yl)benzoyl)-2,6-diazabicyclo[2.2.1]heptane-2-carbonyl)-4,4-dimethylpent-2-enenitrile] |  | > 70% | > 0.2 µM | > 70% |  |  |  | 
COc1cc(-c2cn(C)c(=O)c(C)c2C)cc(OC)c1CN1CC2CC1CN2C(=O)/C(C#N)=C/c1cccc(C(F)(F)F)n1 (mixture of isomers) [BRD9x, (E/Z)-2-(5-(2,6-dimethoxy-4-(1,4,5-trimethyl-6-oxo-1,6-dihydropyridin-3-yl)benzyl)-2,5-diazabicyclo[2.2.1]heptane-2-carbonyl)-3-(6-(trifluoromethyl)pyridin-2-yl)acrylonitrile] | < 0.025 µM | > 70% | < 0.025 µM |  |  |  |  | 
COc1cc(-c2cn(C)c(=O)c3cnccc23)cc(OC)c1CN1CCN(Cc2cccc3c2CCN(C(=O)/C(C#N)=C/c2nccs2)C3C)CC1 (mixture of isomers) [Compound A2, (E/Z)-2-(5-((4-(2,6-dimethoxy-4-(2-methyl-1-oxo-1,2-dihydro-2,7-naphthyridin-4-yl)benzyl)piperazin-1-yl)methyl)-1-methyl-1,2,3,4-tetrahydroisoquinoline-2-carbonyl)-3-(thiazol-2-yl)acrylonitrile] |  |  |  |  | 40 to 70% | < 0.00125 µM | 40 to 70% | < 0.00125 µM
COc1cc(-c2cn(C)c(=O)c3cnccc23)cc(OC)c1CN1CCN(Cc2cccc3c2CCN(C(=O)/C(C#N)=C/C(C)(C)C)C3C)CC1 (mixture of isomers) [Compound A3] |  |  |  |  | 40 to 70% | 0.00125 to 0.01 µM | 40 to 70% | 0.00125 to 0.01 µM
COc1cc(-c2cn(C)c(=O)c(C)c2C)cc(OC)c1CN1CCN(Cc2cccc3c2CCN(C(=O)/C(C#N)=C/C(C)(C)C)C3C)CC1 (mixture of isomers) [Compound A7, (E/Z)-2-(5-((4-(2,6-dimethoxy-4-(1,4,5-trimethyl-6-oxo-1,6-dihydropyridin-3-yl)benzyl)piperazin-1-yl)methyl)-1-methyl-1,2,3,4-tetrahydroisoquinoline-2-carbonyl)-4,4-dimethylpent-2-enenitrile] |  |  |  |  | 40 to 70% | 0.00125 to 0.01 µM | 40 to 70% | 0.01 to 0.025 µM
COc1cc(-c2cn(C)c(=O)c3cnccc23)cc(OC)c1CN1CCN(Cc2cccc3c2CCN(C(=O)/C(C#N)=C\C2(F)CC2)C3C)CC1 (mixture of isomers) [Compound A22, (E/Z)-2-(5-((4-(2,6-dimethoxy-4-(2-methyl-1-oxo-1,2-dihydro-2,7-naphthyridin-4-yl)benzyl)piperazin-1-yl)methyl)-1-methyl-1,2,3,4-tetrahydroisoquinoline-2-carbonyl)-3-(1-fluorocyclopropyl)acrylonitrile] |  |  |  |  | > 75% | 0.00125 to 0.01 µM | > 75% | < 0.00125 µM
COc1cc(-c2cn(C)c(=O)c3cnccc23)cc(OC)c1CN1CCN(Cc2cccc3c2CCN(C(=O)/C(C#N)=C/C2(C)CC2)C3C)CC1 (mixture of isomers) [Compound A26, (E/Z)-2-(5-((4-(2,6-dimethoxy-4-(2-methyl-1-oxo-1,2-dihydro-2,7-naphthyridin-4-yl)benzyl)piperazin-1-yl)methyl)-1-methyl-1,2,3,4-tetrahydroisoquinoline-2-carbonyl)-3-(1-methylcyclopropyl)acrylonitrile] |  |  |  |  | 40 to 70% | 0.00125 to 0.01 µM | 40 to 70% | 0.025 to 0.3 µM
COc1cc(-c2cn(C)c(=O)c3cnccc23)cc(OC)c1CN1CCN(Cc2cccc3c2CCN(C(=O)/C(C#N)=C/C2(C)COC2)C3C)CC1 (mixture of isomers) [Compound A27, (E/Z)-2-(5-((4-(2,6-dimethoxy-4-(2-methyl-1-oxo-1,2-dihydro-2,7-naphthyridin-4-yl)benzyl)piperazin-1-yl)methyl)-1-methyl-1,2,3,4-tetrahydroisoquinoline-2-carbonyl)-3-(3-methyloxetan-3-yl)acrylonitrile] |  |  |  |  | 40 to 70% | 0.00125 to 0.01 µM | 40 to 70% | 0.00125 to 0.01 µM
